Assay results: patent US12297171B2, “EP2 antagonist compounds” (Reservoir Neuroscience, Inc., priority 2021, dated 2025)

Legend:
[1] = Human liver microsome stability; type: in vitro ADME; conditions: human liver microsomes 0.5 mg/mL, 37° C., 60 minutes; for half-life at 2 μM: read-out: T1/2 (microsomal); for microsomal CLint at 2 μM: read-out: in vitro CLint (microsomal)
Protocol: The tested compound was incubated in duplicate with human liver microsomes (0.5 mg/mL) at 37° C. These incubations were carried out at a final test article concentration of 2 μM over a total incubation period of 60 minutes. Samples were taken at 0, 15, 30, 45 and 60 min and the reaction terminated by addition of 4 volumes of acetonitrile containing internal standard (100 nM alprazolam, 200 nM imipramine, 200 nM labetalol and 2 μM ketoprofen). Diclofenac was used as a positive control in this study. The samples were analyzed by UPLC-MS/MS to determine the concentration of the test compound and the percent remaining, intrinsic clearance (in vitro CLint) and half-life (t1/2) values were calculated.
Chromatographic analyses were performed on a Shimadzu UPLC apparatus (Kyoto, Japan) consisting of a gradient pump (model LC-30AD), an automatic injector (model HTC PAL System) and an on-line degasser (model DGU-20A5R). Detection was a triple quadrupole tandem mass spectrometer equipped with a turbo ion spray interface (API 4000/Triple Quad 4500/Triple Quad 5500/Triple Quad 6500). Data acquisition and integration were carried out with LC-MS software (Analyst 1.6) linked directly to the LC-MS/MS system. Chromatographic separations were achieved on a XSelect Hss T3 2.5μ (2.1×30 mm) Column. The mobile phase was 0.1% formic acid in water (A) and 0.1% formic acid in acetonitrile (B). The flow rate was 1.0 mL/min and column was maintained at 40° C.
Half-life (T1/2) data is measured in minutes, and in Table B2, in both microsomal and hepatic assays, the data is grouped into categories of: • A T1/2=1000+ • B T1/2=500 to 1000 • C T1/2=100 to 500 • D T1/2<100
In vitro clearance (CLint) data is measured in μL/min/mg prot, and in Table B2, in both microsomal and hepatic assays, the data is grouped into categories of: • A CLint<1 • B CLint=1 to 10 • C CLint=10 to 20 • D CLint=20+

[2] = biological target: T1, EP2 receptor (Homo sapiens, UniProt P43116); assay: EP2 potency assay (cAMP TR-FRET, LANCE Ultra cAMP kit, antagonism of prostaglandin E2 at EC80); type: cell-based; conditions: CHO-K1 cells transfected with EP2 receptor
T1 construct: expressed in transfected cells; host or cells: CHO-K1 cells (ATCC), transiently transfected with FuGENE 6
T1 sequence (P43116 whole entry): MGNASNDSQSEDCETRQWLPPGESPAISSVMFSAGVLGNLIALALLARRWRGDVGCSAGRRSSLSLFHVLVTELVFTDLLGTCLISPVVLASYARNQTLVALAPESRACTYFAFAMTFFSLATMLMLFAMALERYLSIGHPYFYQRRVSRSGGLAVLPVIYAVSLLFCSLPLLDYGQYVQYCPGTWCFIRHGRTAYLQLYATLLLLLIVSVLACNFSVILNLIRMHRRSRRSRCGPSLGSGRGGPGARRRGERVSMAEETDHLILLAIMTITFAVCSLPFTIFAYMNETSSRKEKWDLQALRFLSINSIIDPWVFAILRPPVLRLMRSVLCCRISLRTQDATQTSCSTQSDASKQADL
Protocol: Compound potency was measured using a cAMP TR-FRET assay.
CHO-K1 cells (ATCC) were seeded at a density of 9.75×10^5 in 6 cm plates, and then on the following day cell media was changed to Opti-Mem I reduced serum media (Gibco), and transfected with a plasmid for expression of the EP2 receptor (the target receptor of interest), using the FuGENE 6 Transfection reagent (Promega). After 6 hours incubation, the cell media was replaced with F12 medium supplemented with 10% FBS and 100 U/ml Pen-Strep. 24 hours after transfection, cells were harvested and seeded at a density of 3000 cells/well in a 384 well plate to perform the cAMP assay, using the LANCE Ultra cAMP assay kit (PerkinElmer).
For each test compound of interest, 10 nl/well of serially diluted test compound was added to each well, resulting in a range of 10 serially diluted compound concentrations from 10000 nM to 0.038 nM, with duplicate wells for each concentration. Plates were then centrifuged at 1000 rpm for 1 min, agitated at 600 rpm at R.T. for 2 min, and incubated at 25° C. for 5 min. The reference agonist, prostaglandin E2 (MCE), was added to each well at the appropriate concentration to reach its EC80 value. Plates were then centrifuged at 1000 rpm for 1 min, agitated at 600 rpm at R.T. for 2 min, and incubated at 25° C. for 30 min.
To measure levels of cAMP, 5 μl/well of Eu-cAMP working solution and 5 μl/well of Ulight-anti-cAMP working solution were added to each well, and plate was centrifuged at 1000 rpm for 1 min, agitated at 600 rpm at R.T. for 2 min, and incubated at 25° C. for 15 min. Levels of TR-FRET fluorescence were measured in each well using an EnVision microplate reader (excitation wavelength=337 nm and emission wavelength=615 and 665 nm). A dose-response curve was prepared by plotting percent inhibition for each compound concentration, and then IC50 was calculated by fitting a curve to the plotted values and extrapolating the IC50 concentration.
Potency data is grouped into categories of AA (IC50<100 nM); A (IC50=100 to 500 nM); B (IC50=500 nM to 1 μM); C (IC50=1 μM to 5 μM); and D (IC50>5 μM).

Compound	half-life at 2 μM [1] [h]	microsomal CLint at 2 μM [1] [µL/min/mg]	IC50 [2] [nM]
COc1ccc2cc(OCC3(n4nn[nH]c4=O)CN(C(=O)c4ccc(F)cc4)C3)ccc2c1 [Compound 1-2, 1-(1-(4-fluorobenzoyl)-3-(((6-methoxynaphthalen-2-yl)oxy)methyl)azetidin-3-yl)-1,4-dihydro-5H-tetrazol-5-one]	1.67 to 8.33	1 to 10	–
COc1ccc(C(=O)N2CCC(C#N)(COc3ccc(-c4ccc(C#N)cc4)cc3)C2)cc1 (racemic) [Compound 2-3, 3-(((4′-cyano-[1,1′-biphenyl]-4-yl)oxy)methyl)-1-(4-methoxybenzoyl)pyrrolidine-3-carbonitrile]	< 1.67	> 20	–
CONC(=O)C1(COc2ccc(-c3ccc(C#N)cc3)cc2)CCN(C(=O)c2ccc(OC)cc2)C1 (stereo not drawn) [Compound 4-23, 3-(((4′-cyano-[1,1′-biphenyl]-4-yl)oxy)methyl)-N-methoxy-1-(4-methoxybenzoyl)pyrrolidine-3-carboxamide]	–	–	> 5000
COc1ccc(C(=O)N2CCC(COc3ccc(-c4ccc(C#N)cc4)cc3)(C(=O)NS(=O)(=O)C(C)(C)C)C2)cc1 (stereo not drawn) [Compound 4-29, 3-[({4′-cyano-[1,1′-biphenyl]-4-yl}oxy)methyl]-1-(4-methoxybenzoyl)-N-(2-methylpropane-2-sulfonyl)pyrrolidine-3-carboxamide]	–	–	> 5000
COc1ccc(C(=O)N2CCC(COc3ccc(-c4ccc(C#N)cc4)cc3)(c3cc[nH]c(=O)c3)C2)cc1 (stereo not drawn) [Compound 4-16, 4′-{[1-(4-methoxybenzoyl)-3-(2-oxo-1H-pyridin-4-yl)pyrrolidin-3-yl]methoxy}-[1,1′-biphenyl]-4-carbonitrile]	–	–	> 5000
COc1ccc(C(=O)N2CCC(COc3ccc(-c4ccc(C#N)cc4)cc3)(C(=O)NCC(F)(F)F)C2)cc1 (stereo not drawn) [Compound 4-20, 3-(((4′-cyano-[1,1′-biphenyl]-4-yl)oxy)methyl)-1-(4-methoxybenzoyl)-N-(2,2,2-trifluoroethyl)pyrrolidine-3-carboxamide]	–	–	> 5000
COc1ccc2cc(OCC3(C#N)CN(C(=O)c4ccc(F)cc4)C3)ccc2c1 [Compound 1-3, 1-(4-fluorobenzoyl)-3-(((6-methoxynaphthalen-2-yl)oxy)methyl)azetidine-3-carbonitrile]	< 1.67	> 20	–
COc1ccc(C(N2CCC(COc3ccc(-c4ccc(C#N)cc4)cc3)(C(=O)O)C2)C(F)(F)F)cc1 (stereo not drawn) [Compound 4-1, 3-[({4′-cyano-[1,1′-biphenyl]-4-yl}oxy)methyl]-1-[2,2,2-trifluoro-1-(4-methoxyphenyl)ethyl]pyrrolidine-3-carboxylic acid; trifluoroacetic acid]	–	–	> 5000

Other lines, results leading:

half-life at 2 μM [1] [h]	microsomal CLint at 2 μM [1] [µL/min/mg]	IC50 [2] [nM]	Compound
–	–	100 to 500	COCS(=O)(=O)NC(=O)C1(COc2ccc(-c3ccc(C#N)cc3)cc2)CCN(C(=O)c2ccc(OC)cc2)C1 (stereo not drawn) [Compound 4-27, 3-[({4′-cyano-[1,1′-biphenyl]-4-yl}oxy)methyl]-1-(4-methoxybenzoyl)-N-methoxymethanesulfonylpyrrolidine-3-carboxamide]
–	–	1000 to 5000	COc1ccc(C(=O)N2CCC(COc3ccc(-c4ccc(C#N)cc4)cc3)(C(=O)NS(=O)(=O)CC(F)(F)F)C2)cc1 (stereo not drawn) [Compound 4-26, 3-[({4′-cyano-[1,1′-biphenyl]-4-yl}oxy)methyl]-1-(4-methoxybenzoyl)-N-(2,2,2-trifluoroethanesulfonyl)pyrrolidine-3-carboxamide]
–	–	> 5000	COc1ccc(C(=O)N2CCC(COc3ccc(-c4ccc(C#N)cc4)cc3)(C(=O)NS(=O)(=O)c3ccccc3)C2)cc1 (stereo not drawn) [Compound 4-31, N-(benzenesulfonyl)-3-[({4′-cyano-[1,1′-biphenyl]-4-yl}oxy)methyl]-1-(4-methoxybenzoyl)pyrrolidine-3-carboxamide]
–	–	> 5000	N#Cc1ccc(-c2ccc(OCC3(C(=O)O)CCN(C(c4ccc(Br)cc4)C(F)(F)F)C3)cc2)cc1 (stereo not drawn) [Compound 4-34, 1-[1-(4-bromophenyl)-2,2,2-trifluoroethyl]-3-[({4′-cyano-[1,1′-biphenyl]-4-yl}oxy)methyl]pyrrolidine-3-carboxylic acid]
–	–	1000 to 5000	COc1ccc(C(=O)N2CCC(COc3ccc(-c4ccc(C#N)cc4)cc3)(C(=O)NO)C2)cc1 (stereo not drawn) [Compound 4-13, 3-(((4′-cyano-[1,1′-biphenyl]-4-yl)oxy)methyl)-N-hydroxy-1-(4-methoxybenzoyl)pyrrolidine-3-carboxamide]
8.33 to 16.7	1 to 10	500 to 1000	COc1ccc(C(=O)N2CCC(COc3ccc(-c4ccc(C#N)cc4)cc3)(n3nn[nH]c3=O)C2)cc1 (racemic) [Compound 2-2, 4′-((1-(4-methoxybenzoyl)-3-(5-oxo-4,5-dihydro-1H-tetrazol-1-yl)pyrrolidin-3-yl)methoxy)-[1,1′-biphenyl]-4-carbonitrile]
–	–	500 to 1000	CCS(=O)(=O)NC(=O)C1(COc2ccc(-c3ccc(C#N)cc3)cc2)CCN(C(=O)c2ccc(OC)cc2)C1 (stereo not drawn) [Compound 4-25, 3-[({4′-cyano-[1,1′-biphenyl]-4-yl}oxy)methyl]-N-(ethanesulfonyl)-1-(4-methoxybenzoyl)pyrrolidine-3-carboxamide]
–	–	1000 to 5000	COc1ccc(C(=O)N2CCC(COc3ccc(-c4ccc(C#N)cc4)cc3)(C(=O)N(C)O)C2)cc1 (stereo not drawn) [Compound 4-22, 3-(((4′-cyano-[1,1′-biphenyl]-4-yl)oxy)methyl)-N-hydroxy-1-(4-methoxybenzoyl)-N-methylpyrrolidine-3-carboxamide]
–	–	1000 to 5000	COc1ccc(C(=O)N2CCC(COc3ccc(-c4ccc(C#N)cc4)cc3)(C(=O)NC#N)C2)cc1 (stereo not drawn) [Compound 4-21, N-cyano-3-(((4′-cyano-[1,1′-biphenyl]-4-yl)oxy)methyl)-1-(4-methoxybenzoyl)pyrrolidine-3-carboxamide]
–	–	1000 to 5000	COc1ccc(C(=O)N2CCC(COc3ccc(-c4ccc(C#N)cc4)cc3)(C(=O)NS(=O)(=O)C3CC3)C2)cc1 (stereo not drawn) [Compound 4-30, 3-[({4′-cyano-[1,1′-biphenyl]-4-yl}oxy)methyl]-N-(cyclopropanesulfonyl)-1-(4-methoxybenzoyl)pyrrolidine-3-carboxamide]
–	–	500 to 1000	COc1ccc(C(=O)N2CCC(COc3ccc(-c4ccc(C#N)cc4)cc3)(C(=O)NS(=O)(=O)C(C)C)C2)cc1 (stereo not drawn) [Compound 4-28, 3-[({4′-cyano-[1,1′-biphenyl]-4-yl}oxy)methyl]-1-(4-methoxybenzoyl)-N-(propane-2-sulfonyl)pyrrolidine-3-carboxamide]
